# Laboratory results taken from patent publication US5017577A, “Methods for treating viral infection” (Burroughs Wellcome Co., priority 1989, dated 1991).
# Target: T1, adenosine (purine) receptors (Cavia porcellus, UniProt P47745)
# T1 construct: Ilea were removed from sacrificed guinea pigs; from tissue; host or cells: guinea pig ileum
# T1 sequence (P47745 1-326): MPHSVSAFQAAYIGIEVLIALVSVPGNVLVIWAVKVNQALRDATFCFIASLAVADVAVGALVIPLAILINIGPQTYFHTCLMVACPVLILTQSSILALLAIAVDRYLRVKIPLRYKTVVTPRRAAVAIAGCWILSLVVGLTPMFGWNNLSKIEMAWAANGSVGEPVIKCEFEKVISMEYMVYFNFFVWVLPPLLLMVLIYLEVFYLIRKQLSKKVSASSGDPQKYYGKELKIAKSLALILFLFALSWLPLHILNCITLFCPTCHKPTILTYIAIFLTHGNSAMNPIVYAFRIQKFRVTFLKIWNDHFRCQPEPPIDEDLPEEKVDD
# Assay: Guinea pig ileum twitch test: purine receptor antagonism against 2-chloroadenosine (Schild regression)
# Settings: agonist 2-chloroadenosine
# Description: Accordingly, a representative number of compounds of the present invention were tested for their ability to antagonise the purine receptors using the guinea pig ileum test system.
# Ilea were removed from sacrificed guinea pigs and placed in organ baths containing oxygenated Krebs-Henseleit buffer. After equilibration, the ilea were stimulated to contract (twitch contraction) using an electrical field-stimulus of 0.1 Hz, 0.05 ms duration and maximal voltage. Under these conditions, the twitch contraction results from the release of acetylcholine.
# Concentration response curves to the purine agonist, 2-chloroadenosine, were determined first in the absence and then in the presnce of multiple concentrations of the compounds of the invention. One concentration of each compound was used per tissue. Quantification of purine receptor antagonism was accomplished using the Schild regression technique, i.e. plots of log (dose-ratio-l) vs log compound concentration, and the pA2 determined by regression of the data points to the x-intercept, where log (dose-ratio-l) is zero.
row,pA2 guinea pig ileum (slope): slope of Schild regression,Structure (SMILES)
1,1.0,"CCCCn1c(=O)c2nc(-c3ccc(/C=C/C(=O)O)cc3)[nH]c2n(CCCC)c1=O [Example 14, (E)-4-(1,3-dibutyl-1,2,3,6-tetrahydro-2,6-dioxo-9H-purin-8-yl)cinnamic acid]"
2,1.0,"CC(C)Cn1c(=O)c2nc(-c3ccc(/C=C/C(=O)O)cc3)[nH]c2n(CC(C)C)c1=O [Example 19, (E)-4-(1,2,3,6-tetrahydro-1,3-diisobutyl-2,6-dioxo-9H-purin-8-yl) cinnamic acid]"
3,0.9,"Cn1c(=O)c2nc(-c3ccc(/C=C/C(=O)O)cc3)[nH]c2n(Cc2ccccc2)c1=O [Example 18, (E)-4-(3-benzyl-1,2,3,6-tetrahydro-1-methyl-2,6-dioxo-9H-purin-8-yl) cinnamic acid]"
4,0.9,"CCCn1c(=O)c2nc(-c3ccc(/C=C/C(=O)O)cc3)[nH]c2n(CCC)c1=O [Example 6, (E)-4-(1,2,3,6-tetrahydro-2,6-dioxo-1,3-dipropyl-9H-purin-8-yl)cinnamic acid]"
5,1.0,"CCCn1c(=O)n(C)c(=O)c2nc(-c3ccc(/C=C/C(=O)O)cc3)[nH]c21 [Example 11, (E)-4-(1,2,3,6-tetrahydro-1-methyl-2,6-dioxo-3-propyl-9H-purin-8-yl)cinnamic acid]"

row,Structure (SMILES),pA2 guinea pig ileum (slope): slope of Schild regression
1,"O=C(O)/C=C/c1ccc(-c2nc3c(=O)n(Cc4ccccc4)c(=O)n(Cc4ccccc4)c3[nH]2)cc1 [Example 15, (E)-4-(1,3-dibenzyl-1,2,3,6-tetrahydro-2,6-dioxo-9H-purin-8 yl) cinnamic acid]",0.9

# Test system: AIDV
# Assay: Anti-retroviral activity against AIDV
# Design: species or system AIDV (HTLV III)
# Settings: in words
row,Structure (SMILES),"anti-retroviral activity, especially against AIDV"
1,"O=C(O)/C=C/c1ccc(-c2nc3c(=O)n(Cc4ccccc4)c(=O)n(Cc4ccccc4)c3[nH]2)cc1 [Example 15, (E)-4-(1,3-dibenzyl-1,2,3,6-tetrahydro-2,6-dioxo-9H-purin-8 yl) cinnamic acid]",especially potent activity against AIDV
